Experimental data: patent US8853227B2, “Methotrexate adjuvants to reduce toxicity and methods for using the same” (Tosk, Incorporated, priority 2008, dated 2014)

Assays:
[1] = Mouse Study I (protection from MTX-induced weight loss, LPS/MTX model); type: in vivo, C57BL/6 mice; details: 10 or 30 mg/kg ip 3 hr before and after MTX, LPS+MTX; p<0.004 (10 mg/kg), p<0.0005 (30 mg/kg) vs LPS+MTX
Protocol: C57BL/6 mice (10 animals/treatment group) were dosed on Day 1 with LPS (5 μg, i.p.). On Day 2, the animals were treated with 200 mg/kg MTX+10 or 30 mg/kg TK-112690 3 hr before and 3 hr after the MTX treatment. On Day 3, the animals were dosed MTX 100 mg/kg+10 or 30 mg/kg TK±3 hr. On day 8, the Day 8-Day 1 weight was determined and results subject to ANOVA. Group 1=saline alone, Group 2=MTX alone, Group 3=LPS alone, Group 4=MTX+LPS, Group 5=10 mg/kg TK-112690+MTX+LPS or Group 6=30 mg/kg TK-112690+MTX+LPS.
This mouse model is modified from a published procedure (de Koning et al., Int Immunol 18: 941 (2006)). Mice are treated on day one with a single intraperitoneal (ip) dose of lipopolysaccharide (LPS), followed by two consecutive days with 200 and 100 mg/kg ip methotrexate, respectively. Controls include saline alone for days 1, 2, and 3, saline on day 1 plus MTX on days 2 and 3 and LPS on day one with saline injection on days 2 and 3. Experimental groups are given LPS on day one and 10 or 30 mg/kg, TK-112690, a representative 2,2′-anhydropyrimidine test article, ip 3 hours before, and 3 hours after, methotrexate injection on days 2 and 3. Animal weights are measured every day after the first injection with experiment termination five days after the second methotrexate injection (day 8). Weight loss is representative of MTX-induced toxicity, and one aspect of MTX-induced mucositis. […]

[2] = system: CCRF-CEM cells; test: Cell Culture Study I (MTX cytotoxicity, alamarBlue); type: cell-based, human
Protocol: In this study, CCRF-CEM cells purchased from ATCC were cultured and then 12 tubes containing approximately 10^6 cells each treated for 72 hours with media (Group1), MTX 0.03 μM (Group2), MTX+Leucovorin 1 μM (Group3), MTX+Leucovorin 10 μM (Group4), MTX+Leucovorin 100 μM (GroupS), MTX+TK-112690 1 μM (Group6), MTX+TK-112690 10 μM (Group7) and MTX+TK-112690 100 μM (Group8). […] Viability was measured as percent reduction of alamarBlue absorbance.
The tumor cell line CCR-CEM (human T-cell acute lymphoblastic leukemia) is obtained from American Type Culture Collection (CRL-1593.2) and cultured in accordance with the product information sheet with the following exceptions: 55.3 cm^2 Petri dishes are used instead of 75 cm^2 culture flasks, and 1% penicillin-streptomycin solution (HyClone SV30010) and 1% GlutaMAX™ (Gibco 35050) are added to the culture medium.
TK-112690, the representative 2,2′-anhydropyrimidine test article, is dissolved in 40% DMSO, sterile filtered then diluted with sterile distilled water to obtain initial working solutions of 10, 100 and 1000 μM. In testing, a 100 fold dilution is made in culture media to give final assay concentrations of 0.1, 1.0 and 10.0 μM. MTX (SAFC Biosciences M8407) is dissolved in sterile distilled water and 5 N NaOH then sterile filtered. The final pH of the stock solution is 7.8 and working solutions are made with sterile distilled water for final assay concentrations of 30, 3.0, 0.3, 0.03 and 0.003 μM. Leucovorin (Sigma F-7878) is dissolved in sterile distilled water, sterile filtered and diluted with sterile distilled water for final assay concentrations of 0.1, 1.0 and 10.0 μM.
Aliquots of 100 μL of cell suspension are plated in 96 well microtiter plates (Corning costar 3595) and placed in an atmosphere of 5% CO2 at 37° C. (Fisher Scientific Isotemp 3500 CO2 Incubator). After 24 hours, 100 μL of growth medium [RPMI-1640 w/L-glutamine (Cambrex 12-702Q) fortified with sodium pyruvate (HyClone SH30239.01), fetal bovine serum (SAFC Biosciences 12107C) and HEPES buffer (Gibco 15630)] and 2 μL of test solution or vehicle are added respectively per well and the plates incubated for an additional 72 hour incubation. MTX is evaluated at concentrations of 0.003, 0.03, 0.30 and 3.0 μM alone or in combination with either a 2,2′-anhydropyrimidine test article or Leucovorin at concentrations of 0.1, 1.0, 10.0 μM. At the end of incubation, the efficacy of anti-cell proliferation is determined by optical absorbance at A=570 and 600 nm [Spectramax 250 (Molecular Devices)] in accordance with the standard alamarBlue™ (Biosource) protocol.
Group 1 is the cell control (media treated). Group 2 corresponds to cells treated with 0.03 μM MTX. Group 3 are cells treated with 1.0 μM Leucovorin. Group 4 are cells treated with 0.1 μM Leucovorin. […]

SMILES: Cc1cn2c(nc1=O)O[C@H]1[C@H](O)[C@@H](CO)O[C@H]12 [TK-112690, 2,2′-anhydro-5-methyluridine]
- protection from MTX-induced weight loss (Day 8-Day 1 mean weight change) [1]: highly significant
- cell viability, MTX+TK-112690 versus MTX alone ([2]; 0.03 μM MTX + TK-112690, 72 hours, p<0.844, 0.918, 1.000): not different
- cell viability, test article alone versus control ([2]; without MTX, 72 hours): not statistically different than control
